Results from patent publication US5399580A, “Therapeutic nucleosides-uses” (Burroughs Wellcome Co., priority 1993, dated 1995).
Where two headings read alike, the source gives them in different places.

How the values were obtained:
[1] = test system: Human cytomegalovirus (HCMV); assay: Anti-HCMV plaque reduction assay in MRC5 cells; type: cell-based; conditions: Human betaherpesvirus 5, read-out: IC50, anti-HCMV activity (50% inhibitory concentration)
Experimental: Human cytomegalovirus (HCMV) is assayed in monolayers of MRC5 cells (human embryonic lung) in multiwell trays. Activity of compounds is determined in the plaque reduction assay, in which a cell monolayer is infected with a suspension of HCMV. A range of concentrations of the compound to be tested (of known molarity) is then incorporated into the carboxymethyl cellulose overlay. Plaque numbers of each concentration are expressed as percentage of the control and a dose-response curve is drawn. From this curve the 50% inhibitory concentration (IC50) is estimated.

B cells (IM9) = assay: Inhibition of the growth of B cells (IM9); type: cell-based; conditions: Homo sapiens, IM-9; read-out: I50, growth of IM9 cells
Experimental: (§1) The compounds of the invention were tested for inhibition of the growth of T cells (Molt 4) and B cells (IM9) by the method of Averett, D., Journal of Virological Methods, 23, (1989), 263-276.

T cells (Molt 4) = assay: Inhibition of the growth of T cells (Molt 4); type: cell-based; conditions: Homo sapiens, read-out: I50, growth of Molt 4 cells
Experimental: as §1

[2] = test system: HBV (HepG2 2.2.15, P5A cell line); assay: Anti-HBV assay: HBV DNA in supernatants of HBV-producing cells, immunoaffinity capture, PCR and hybrid-capture detection; type: cell-based, Hepatitis B virus; conditions: HepG2 2.2.15, P5A cells, compound on days 1, 3, 5, 7
Experimental: Anti-HBV activity of compounds of formula (I) and (I-1) was determined with a high-capacity assay for assessing efficacy. Supernatants from growing HBV-producing cells (HepG2 2.2.15, P5A cell line) in 96-well plates are applied to microtiter plate wells which have been coated with a specific monoclonal antibody to HBV surface antigen (HBsAg). Virus particles present in the supernatants bind to the antibody and remain immobilized while other debris is removed by washing. These virus particles are then denatured to release HBV DNA strands which are subsequently amplified by the polymerase chain reaction and detected with a colorimetric hybrid-capture assay. Quantitation is achieved through fitting of a standard curve to dilutions of a cell supernatant with known HBV DNA content. By comparing HBV DNA levels of untreated control cell supernatants with supernatants containing a compound of formula (I) or (I-1), a measure of anti-HBV effectiveness is obtained.
HBV producer cells, 2500 cells/well, were seeded in 96-well culture dishes in RPMI/10% fetal bovine serum/2 mM glutamine (RPMI/10/2:). […] Twenty-five uL HBV standard media dilutions in RPMI/10/2 were added to 2 rows of wells to serve as an internal standard curve for quantitation, and the plates were sealed and incubated at 4° C. overnight. […]
Polymerase chain reaction (Saiki, R. K. et al., Science, 239 (4839) 487-91 (1988)) was carried out on 5uL samples, using a Perkin Elmer PCR kit. […] Primers were chosen from conserved regions in the HBV genome, as determined by alignment of several sequences. […]
PCR products were detected with horse radish peroxidase-labeled oligonucleotide probes (Synthecell Corp., Rockville, Md. 20850), which hybridize to biotinylated strands of denatured PCR products directly in streptavidin-coated microtiter plate wells, using essentially the method of Holodiniy, M. et al., Bio Techniques, 12 (1) 37-39 (1992). […] Quantities of HBV DNA present in the original samples were calculated by comparison with standards. […]

[3] = Hepatitis B virus, HepG2 2.2.15, read-out: IC50 (median inhibitory concentration, 50 percent decrease in HBV DNA), approximate IC50

OC[C@@H]1C[C@H](n2c(Br)nc3cc(Cl)c(Cl)cc32)[C@@H](O)[C@H]1O (relative stereo) [Ex. 4, (±)-(1R*,2S*,3S*,5S*)-5-(2-Bromo-5,6-dichloro-1H-benzimidazol-1-yl)-3-(hydroxymethyl)-1,2-cyclopentanediol]
IC50 [1]: 1.9 µM | IC50 (B cells (IM9)): 48 µM | IC50 (T cells (Molt 4)): 39 µM

OC[C@@H]1C[C@@H](O)[C@H](n2c(Br)nc3cc(Cl)c(Cl)cc32)C1 (relative stereo) [Ex. 13, (±)-(1R*,2R*,4S*)-2-(2-Bromo-5,6-dichloro-1H-benzimidazol-1-yl)-4-(hydroxymethyl)cyclo-pentanol]
IC50 [2, 3]: 5 µM | IC50 [1]: 1 µM | IC50 (B cells (IM9)): 88 µM | IC50 (T cells (Molt 4)): 32 µM

OC[C@@H]1C[C@H](n2c(Br)nc3cc(Cl)c(Cl)cc32)[C@@H](O)[C@H]1O [Ex. 69, (1R,2S,3S,5S)-5-(2-Bromo-5,6-dichloro-1H-benzimidazol-1-yl)-3-(hydroxymethyl)-1,2-cyclopentanediol]
IC50 [2, 3]: 0.72 µM | IC50 ([2]; read-out: IC50 (median inhibitory concentration, 50 percent decrease in HBV DNA), approximate IC50): 1.3 µM | IC50 (B cells (IM9)): 35 µM | IC50 (T cells (Molt 4)): 29 µM
